System: GPR65 WT BMDCs
Assay: RNA sequencing of BMDCs, GPR65 WT
Assay type: cell-based, mouse
Protocol: BMDCs were differentiated from bone marrow from in Dulbecco’s modified Eagle’s medium (DMEM) [10% heat-inactivated fetal bovine serum (FBS), 1X GlutaMAX, 1% penicillin-streptomycin] containing recombinant murine granulocyte-macrophage colony-stimulating factor (rmGM-CSF) (20 ng/ml; Peprotech, 315-03) for 7 days, supplemented with additional DMEM + rmGM-CSF on day 3. Cells were then scraped and seeded at 1 × 10^5 cells per well in a 96-well microplate and allowed to adhere overnight.
Different media were prepared on the basis of target pH. pH 6.6: DMEM [10% FBS, 1% penicillin/streptomycin (p/s), 20 mM BES (MilliporeSigma, B4554), 1X Glutamax (Gibco, 35050061), 3.75 mM sodium bicarbonate, and 41.25 mM NaCl]. pH 7.2: DMEM (10% FBS, 1% p/s, 20 mM BES, 1X Glutamax, 7.5 mM sodium bicarbonate, and 36.5 mM NaCl). pH 7.6: DMEM 10% FBS, 1% p/s, 20 mM BES, 1X Glutamax, and 44 mM sodium bicarbonate. Media was allowed to equilibrate overnight at 37°C, 5% CO2 in a vented conical tube, and then adjusted to desired pH immediately before the stimulation using 1 M NaOH.
BMDCs were stimulated with different compounds and pH conditions while simultaneously challenged with zymosan (5 μg/ml; Invivogen, tlrl-zyn) for 2 hours. The treatment conditions were as follows: (i) pH 7.2 + DMSO, (ii) pH 7.2 + 20 μM BRD5075, (iii) pH 7.6 + DMSO, and (iv) pH 7.6 + 5 μM PGE2 (Tocris, 2296). Cells were lysed with a lysis/binding buffer (Invitrogen, A33562).
Libraries were prepared using a modified SmartSeq2 protocol. RNA lysates were purified with Dynabeads mRNA Direct Purification kit (Life Technologies, 61011), followed by reverse transcription with Maxima Reverse Transcriptase (Thermo Fisher Scientific, EP0742) and whole transcription amplification (WTA) with KAPA HotStart HiFi 2x ReadyMix (Kapa Biosystems, KK2601). WTA products were purified with Ampure XP beads (Beckman Coulter, A63880). RNA sequencing libraries were constructed using Nextera XT DNA Library Preparation kit (Illumina, FC-131-1096). Samples were purified with Ampure XP, pooled in equal quantities, then run on 2% E-gel EX (Invitrogen, G402022). Extracted library from ~250 to 800 bps with gel extraction kit (Zymo Research, D4008). The libraries were sequenced on an Illumina NextSeq 500 instrument with NextSeq 500/550 High Output v2 kit (Illumina, 20024906) and the following parameters: paired End: Index1 8, Index2 8, Read1 38, Read 2 38.
BCL files were converted to fastq using Bcl2Fastq. Fastq reads were aligned to the mouse reference genome mm10 using the STAR aligner ([55]), and counts assigned to genes using the RSEM package ([56]). The R/Bioconductor package DESeq2 ([57]) was used to identify differentially expressed (DE) genes. The data were not normalized or pre-processed in any way, as DESeq2 expects raw un-normalized counts as input. Genes with a Benjamini and Hochberg–corrected P value < 0.1 were considered statistically significant.

[1] = WT BMDCs, BRD5075 vs DMSO, pH 7.2

`Cc1ccc(NC(=O)c2cnn3c(O)cc(-c4ccc(COC(C)C)cc4)nc23)nc1` [BRD5075, O=C(NC1=NC=C(C)C=C1)C2=C3N(N=C2)C(O)=CC(C4=CC=C(COC(C)C)C=C4)=N3] was tested, and the Fos expression (20 μM vs DMSO, pH 7.2) was “up-regulated”, the “Socs3 and Cish expression” value (20 μM vs DMSO, pH 7.2) was “down-regulated” and the “Tnfrsf9, Tnfrsf26 and Tnfaip8 expression” value (20 μM vs DMSO, pH 7.2) was “down-regulated”. For the same molecule, the “expression of inflammatory cytokine (Il12b, Il1b, Tnf) and chemokine (Ccl7, Ccl2, Ccl22, Cxcl1, Cxcl2, Cxcl3) genes” value (20 μM vs DMSO, pH 7.2) was “down-regulated”, the “Mt1 and Mt2 expression” value (20 μM vs DMSO, pH 7.2, zymosan, 2 hours) was “up-regulated” and the “log2FoldChange Acod1” value [1] was -0.8043. The “log2FoldChange Ahnak” value [1] was -0.3498, the “log2FoldChange Bcl2a1a” value [1] was -0.4699 and the “log2FoldChange Bcl2a1b” value [1] was -0.2827. For the same molecule, the “log2FoldChange Bcl2a1d” value [1] was -0.38, the “log2FoldChange Btg1” value [1] was -0.3947 and the “log2FoldChange Cacnb3” value [1] was -0.5998. The “log2FoldChange Cap1” value [1] was -0.3862, the “log2FoldChange Car2” value [1] was -0.6566 and the “log2FoldChange Ccl2” value [1] was -0.6388. For the same molecule, the “log2FoldChange Ccl5” value [1] was -0.8152, the “log2FoldChange Ccl7” value [1] was -1.049 and the “log2FoldChange Ccl22” value [1] was -0.5298. The “log2FoldChange Ccr7” value [1] was -0.5607, the “log2FoldChange Ccrl2” value [1] was -0.6903 and the “log2FoldChange Cd14” value [1] was -0.4004. For the same molecule, the “log2FoldChange Cd86” value [1] was -0.6053, the “log2FoldChange Cdc37” value [1] was -0.5925 and the “log2FoldChange Cdc42ep2” value [1] was -0.4809. The “log2FoldChange Cebpb” value [1] was -0.9437, the “log2FoldChange Cflar” value [1] was -0.6547 and the “log2FoldChange Cish” value [1] was -0.8764. The “log2FoldChange Clec4e” value [1] was -0.6037, the “log2FoldChange Coro1a” value [1] was -0.3668 and the “log2FoldChange Cxcl1” value [1] was -0.8744. For the same molecule, the “log2FoldChange Cxcl2” value [1] was -0.4995, the “log2FoldChange Cxcl3” value [1] was -0.5082 and the “log2FoldChange Cytip” value [1] was -0.4125. For the same molecule, the “log2FoldChange Ddx5” value [1] was -0.3311, the “log2FoldChange Ehd1” value [1] was -0.3665 and the “log2FoldChange Eif1a” value [1] was -0.4662. For the same molecule, the “log2FoldChange Fam177a” value [1] was -0.5633, the “log2FoldChange Flrt3” value [1] was -0.6822 and the “log2FoldChange Fos” value [1] was 0.7626. For the same molecule, the “log2FoldChange Fscn1” value [1] was -1.127, the “log2FoldChange Gem” value [1] was -0.7493 and the “log2FoldChange Ghitm” value [1] was -0.3657. For the same molecule, the “log2FoldChange Gpr84” value [1] was -0.6049, the “log2FoldChange H2-Ab1” value [1] was -0.3044 and the “log2FoldChange H2-D1” value [1] was -0.3663. For the same molecule, the “log2FoldChange H2-K1” value [1] was -0.4443, the “log2FoldChange H2-Q4” value [1] was -0.9033 and the “log2FoldChange H2-Q6” value [1] was -0.6888. The “log2FoldChange H2-Q7” value [1] was -0.7384, the “log2FoldChange Hivep3” value [1] was -0.8888 and the “log2FoldChange Hnrnpab” value [1] was -0.4744. For the same molecule, the “log2FoldChange Ier3” value [1] was -0.643, the “log2FoldChange Ifitm1” value [1] was -0.5428 and the “log2FoldChange Ifitm3” value [1] was -0.5054. For the same molecule, the “log2FoldChange Il1b” value [1] was -1.038, the “log2FoldChange Il1rn” value [1] was -0.3871 and the “log2FoldChange Il12b” value [1] was -0.7451. For the same molecule, the “log2FoldChange Inhba” value [1] was -0.8833, the “log2FoldChange Irf8” value [1] was -0.5092 and the “log2FoldChange Lrrc58” value [1] was -0.5089. The “log2FoldChange Malt1” value [1] was -0.6085, the “log2FoldChange Marcksl1” value [1] was -0.8077 and the “log2FoldChange Myo9b” value [1] was -0.609. The “log2FoldChange Nfe2l2” value [1] was -0.3368, the “log2FoldChange Nfkb2” value [1] was -0.6827 and the “log2FoldChange Nfkbia” value [1] was -0.3317. For the same molecule, the “log2FoldChange Nfkbid” value [1] was -0.8151, the “log2FoldChange Nfkbie” value [1] was -0.5542 and the “log2FoldChange Pde4b” value [1] was -0.698. For the same molecule, the “log2FoldChange Plau” value [1] was -0.5236, the “log2FoldChange Plek” value [1] was -0.4983 and the “log2FoldChange Ptafr” value [1] was -0.4512. The “log2FoldChange Ptgs2” value [1] was -0.6129, the “log2FoldChange Ptpn6” value [1] was -0.3496 and the “log2FoldChange Rasgef1b” value [1] was -0.4887. For the same molecule, the “log2FoldChange Rgs1” value [1] was -0.3869, the “log2FoldChange Rps28” value [1] was 0.3044 and the “log2FoldChange Rsad2” value [1] was -0.6161. For the same molecule, the “log2FoldChange S100a8” value [1] was -0.9378, the “log2FoldChange S100a9” value [1] was -1.055 and the “log2FoldChange Samsn1” value [1] was -0.5214. For the same molecule, the “log2FoldChange Sat1” value [1] was -0.2878, the “log2FoldChange Sel1l” value [1] was -0.4914 and the “log2FoldChange Sh3bgrl” value [1] was -0.3277. For the same molecule, the “log2FoldChange Slc3a2” value [1] was -0.6173, the “log2FoldChange Slc7a11” value [1] was -0.4778 and the “log2FoldChange Slfn2” value [1] was -0.3087. The “log2FoldChange Socs3” value [1] was -0.448, the “log2FoldChange Sqstm1” value [1] was -0.4417 and the “log2FoldChange Srgn” value [1] was -0.3315. For the same molecule, the “log2FoldChange Stub1” value [1] was -0.4634, the “log2FoldChange Syngr2” value [1] was -0.3646 and the “log2FoldChange Tfec” value [1] was -0.8287. The “log2FoldChange Tlr2” value [1] was -0.455, the “log2FoldChange Tmem123” value [1] was -0.5279 and the “log2FoldChange Tmsb10” value [1] was 0.5333. The “log2FoldChange Tnf” value [1] was -0.4212, the “log2FoldChange Tnfaip8” value [1] was -0.4539 and the “log2FoldChange Tnfrsf9” value [1] was -0.6055. For the same molecule, the “log2FoldChange Tnfrsf26” value [1] was -0.4775, the “log2FoldChange Tnip3” value [1] was -0.5262 and the “log2FoldChange Ybx1” value [1] was -0.4889. The “log2FoldChange mt-Atp8” value [1] was 0.4788.

From PMC11259170, “Small-molecule probe for IBD risk variant GPR65 I231L alters cytokine signaling networks through positive allosteric modulation” (Science Advances, 2024)
